From ChEMBL document CHEMBL3813635, “Development of new Malt1 inhibitors and probes” (Bioorg Med Chem, 2016)
Active and inactive are the calls of the source. The calls are words filed in the database; no cut-off is given here.

Tests used:
[1] = target: T1, Mucosa-associated lymphoid tissue lymphoma translocation protein 1 (Homo sapiens, UniProt Q9UDY8); assay: (§1) Inhibition of recombinant Malt1 (unknown origin) at 10 to 1000 uM preincubated for 1 hr followed by (S)-1-((6-(4-(4-(5,5-Difluoro-3,7-bis(4-methoxyphenyl)-5H-4l4,5l4-dipyrrolo[1,2-c:20,10-f][1,3,2]diazaborinin-10-yl)butyl)-1H-1,2,3-triazol-1-yl)hexanoyl)-L-valyl-L-arginyl)-N-((S)-1-fluoro-6-guanidino-2-oxohexan-3-yl)pyrrolidine-2-carboxamide addition and incubated for 1 hr by SDS-PAGE based competitive activity-based protein profiling assay
T1 sequence (Q9UDY8 whole entry): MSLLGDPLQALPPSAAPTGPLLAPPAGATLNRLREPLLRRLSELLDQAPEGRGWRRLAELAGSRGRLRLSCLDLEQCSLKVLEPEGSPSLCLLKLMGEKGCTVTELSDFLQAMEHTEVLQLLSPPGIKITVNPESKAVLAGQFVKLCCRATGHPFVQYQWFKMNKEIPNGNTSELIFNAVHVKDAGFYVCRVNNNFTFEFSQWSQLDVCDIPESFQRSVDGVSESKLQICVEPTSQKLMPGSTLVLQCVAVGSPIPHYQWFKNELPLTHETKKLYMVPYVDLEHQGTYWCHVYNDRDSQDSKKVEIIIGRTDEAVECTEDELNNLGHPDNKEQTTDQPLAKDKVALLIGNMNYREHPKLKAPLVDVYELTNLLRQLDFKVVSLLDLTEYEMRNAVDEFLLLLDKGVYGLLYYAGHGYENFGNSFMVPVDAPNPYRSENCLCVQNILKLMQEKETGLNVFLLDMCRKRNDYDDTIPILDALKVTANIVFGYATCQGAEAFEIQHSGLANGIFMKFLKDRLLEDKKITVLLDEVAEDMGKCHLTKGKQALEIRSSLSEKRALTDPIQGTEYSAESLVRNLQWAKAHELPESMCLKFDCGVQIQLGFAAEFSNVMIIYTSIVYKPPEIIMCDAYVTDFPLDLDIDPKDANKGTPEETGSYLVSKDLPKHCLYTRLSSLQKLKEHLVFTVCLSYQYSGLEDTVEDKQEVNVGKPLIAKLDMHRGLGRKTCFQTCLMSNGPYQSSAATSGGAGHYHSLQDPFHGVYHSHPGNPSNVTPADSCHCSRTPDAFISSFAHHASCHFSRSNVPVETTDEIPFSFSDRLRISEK

[2] = target: T2, Mucosa-associated lymphoid tissue lymphoma translocation protein 1 (Homo sapiens) (UniProt Q9UDY8); assay: as §1
T2 sequence (whole entry): T1 sequence (Q9UDY8 whole entry)

Jurkat = assay: Binding affinity to Malt1 C/A mutant (unknown origin) overexpressed in human Jurkat T cells assessed as protein labeling at 1 uM after 50 mins by Western blot analysis; format: cell-based
[3] = target: T2, Mucosa-associated lymphoid tissue lymphoma translocation protein 1 (Homo sapiens); assay: Binding affinity to Flag-tagged Malt1 (unknown origin) overexpressed in human Jurkat T cells assessed as protein labeling at 1 uM after 50 mins by Western blot analysis; format: cell-based
[4] = target: T2, Mucosa-associated lymphoid tissue lymphoma translocation protein 1 (Homo sapiens); assay: Binding affinity to Malt1 in phorbol 12-myristate 13-acetate/ionomycin stimulated human Jurkat T cells assessed as protein labeling at 1 uM after 50 mins by SDS-PAGE based activity-based protein profiling assay; format: cell-based
[5] = target: T2, Mucosa-associated lymphoid tissue lymphoma translocation protein 1 (Homo sapiens); assay: Binding affinity to recombinant GST-Malt1 (325 to 760 residues) (unknown origin) assessed as protein labeling at 1 uM after 1 hr by SDS-PAGE based activity-based protein profiling assay
[6] = target: T2, Mucosa-associated lymphoid tissue lymphoma translocation protein 1 (Homo sapiens); assay: Binding affinity to recombinant GST-Malt1 (325 to 760 residues) (unknown origin) assessed as protein labeling at 0.1 to 1 uM after 1 hr by SDS-PAGE based activity-based protein profiling assay
[7] = target: T2, Mucosa-associated lymphoid tissue lymphoma translocation protein 1 (Homo sapiens); assay: Binding affinity to Malt1 in phorbol 12-myristate 13-acetate/ionomycin stimulated human Jurkat T cells assessed as protein labeling at 3 uM after 50 mins by SDS-PAGE based activity-based protein profiling assay; format: cell-based
[8] = target: T2, Mucosa-associated lymphoid tissue lymphoma translocation protein 1 (Homo sapiens); assay: Binding affinity to Malt1 in phorbol 12-myristate 13-acetate/ionomycin stimulated human Jurkat T cells assessed as protein labeling at 1 to 3 uM after 50 mins by SDS-PAGE based activity-based protein profiling assay; format: cell-based
[9] = target: T2, Mucosa-associated lymphoid tissue lymphoma translocation protein 1 (Homo sapiens); assay: Binding affinity to recombinant GST-Malt1 (325 to 760 residues) (unknown origin) assessed as protein labeling at 0.05 to 0.5 uM after 1 hr by SDS-PAGE based activity-based protein profiling assay
[10] = target: T1, Mucosa-associated lymphoid tissue lymphoma translocation protein 1; assay: as §1, with “at 1” for “at 10”, “to 100” for “to 1000”
[11] = target: T2, Mucosa-associated lymphoid tissue lymphoma translocation protein 1 (Homo sapiens); assay: as above

**Q.** `COCCOc1nc(-c2ccc(-c3ccccc3)cc2)n(-c2ccc(NC(=O)CCl)cc2)n1` was tested. Which IC50 [1] did it give?
**A.** Its IC50 is 22 µM.

**Q.** And the pIC50(app) [2]?
**A.** Its pIC50(app) is 4.66.

**Q.** `C=CC(=O)Nc1ccc(-n2nc(OCCOC)nc2-c2ccc(Cl)c(Cl)c2)cc1` was tested. Which IC50 [1] did it give?
**A.** The IC50 was 34 µM.

**Q.** What about the pIC50(app) [2] of the same molecule?
**A.** Its pIC50(app) is 4.47.

**Q.** With `CC1=CC(C)=[N+]2C1=Cc1ccc(CCC(=O)N[C@@H](CC(C)C)C(=O)N[C@@H](CCCNC(=N)N)C(=O)N[C@@H](CO)C(=O)N[C@@H](CCCNC(=N)N)C(=O)COC(=O)c3c(C)cccc3C)n1[B-]2(F)F` as the molecule, how does the Activity (Jurkat) read?
**A.** Its Activity is “inactive”.

**Q.** And the Activity [3]?
**A.** The Activity was “Active”.

**Q.** What about the Activity [4] of the same molecule?
**A.** Its Activity is “Active”.

**Q.** What about the Activity [5] of the same molecule?
**A.** Its Activity is “Active”.

**Q.** Which results are given for `COc1ccc(C2=[N+]3C(=C(CCCCc4cn(CCCCCC(=O)N[C@H](C(=O)N[C@@H](CCCNC(=N)N)C(=O)N5CCC[C@H]5C(=O)N[C@@H](CCCNC(=N)N)C(=O)CF)C(C)C)nn4)c4ccc(-c5ccc(OC)cc5)n4[B-]3(F)F)C=C2)cc1`?
**A.** Activity (Jurkat): inactive; Activity [6]: Active; Activity [7]: Active; Activity [3]: Active; Activity [4]: inactive

**Q.** For `COCCOc1nc(-c2ccc(F)c(F)c2)n(-c2ccc(NC(=O)CCl)cc2)n1`, which IC50 [1] is on record?
**A.** Its IC50 is 26 µM.

**Q.** What about the pIC50(app) [2] of the same molecule?
**A.** The pIC50(app) was 4.59.

**Q.** Which IC50 [1] does the source give for `COCCOc1nc(-c2ccccc2)n(-c2ccc(NC(=O)CCl)cc2)n1` here?
**A.** Its IC50 is 98 µM.

**Q.** What about the pIC50(app) [2] of the same molecule?
**A.** The pIC50(app) was 4.01.

**Q.** Which IC50 [1] does the source give for `COCCOc1nc(-c2ccc(C(F)(F)F)cc2)n(-c2ccc(NC(=O)CCl)cc2)n1` here?
**A.** The IC50 was 22 µM.

**Q.** What about the pIC50(app) [2] of the same molecule?
**A.** The pIC50(app) was 4.66.

**Q.** Which results are given for `COCCOc1nc(-c2ccc(OC)c(OC)c2)n(-c2ccc(NC(=O)CCl)cc2)n1`?
**A.** IC50 [1]: 12 µM; pIC50(app) [2]: 4.92

**Q.** `CN1\C(=C/C=C/C=C/C2=[N+](CCCCCC(=O)NCCOc3nc(-c4ccc(Cl)c(Cl)c4)n(-c4ccc(NC(=O)CCl)cc4)n3)c3ccccc3C2(C)C)C(C)(C)c2ccccc21` was tested. Which Activity [8] did it give?
**A.** Its Activity is “inactive”.

**Q.** And the Activity [9]?
**A.** Its Activity is “inactive”.

**Q.** And the Activity (Jurkat)?
**A.** Its Activity is “Active”.

**Q.** What about the Activity [3] of the same molecule?
**A.** Its Activity is “Active”.

**Q.** And the Activity [5]?
**A.** Its Activity is “Active”.

**Q.** `COCCOc1nc(-c2cccc(Br)c2)n(-c2ccc(NC(=O)CCl)cc2)n1` was tested. Which IC50 [1] did it give?
**A.** The IC50 was 17 µM.

**Q.** What about the pIC50(app) [2] of the same molecule?
**A.** The pIC50(app) was 4.78.

**Q.** Which results are given for `COCCOc1nc(-c2ccc(C)cc2)n(-c2ccc(NC(=O)CCl)cc2)n1`?
**A.** IC50 [10]: 8.2 µM; pIC50(app) [11]: 5.09; IC50 [1]: 9 µM; pIC50(app) [2]: 5.05

**Q.** With `COCCOc1nc(-c2cccc(C(F)(F)F)c2)n(-c2ccc(NC(=O)CCl)cc2)n1` as the molecule, how does the IC50 [1] read?
**A.** The IC50 was 93 µM.

**Q.** What about the pIC50(app) [2] of the same molecule?
**A.** The pIC50(app) was 4.03.

**Q.** `COCCOc1nc(-c2cccc(F)c2)n(-c2ccc(NC(=O)CCl)cc2)n1` was tested. Which IC50 [1] did it give?
**A.** The IC50 was 88 µM.

**Q.** And the pIC50(app) [2]?
**A.** Its pIC50(app) is 4.05.

**Q.** How did the IC50 [1] turn out when `COCCOc1nc(-c2cccc(OC)c2)n(-c2ccc(NC(=O)CCl)cc2)n1` was run?
**A.** The IC50 was 194 µM.

**Q.** What about the pIC50(app) [2] of the same molecule?
**A.** Its pIC50(app) is 3.71.

**Q.** With `COCCOc1nc(-c2cccc(C)c2)n(-c2ccc(NC(=O)CCl)cc2)n1` as the molecule, how does the IC50 [1] read?
**A.** Its IC50 is 278 µM.

**Q.** What about the pIC50(app) [2] of the same molecule?
**A.** The pIC50(app) was 3.56.

**Q.** Which IC50 [10] does the source give for `COCCOc1nc(-c2ccc(Br)cc2)n(-c2ccc(NC(=O)CCl)cc2)n1` here?
**A.** Its IC50 is 2.1 µM.

**Q.** What about the pIC50(app) [11] of the same molecule?
**A.** Its pIC50(app) is 5.68.

**Q.** What about the IC50 [1] of the same molecule?
**A.** The IC50 was 1.5 µM.

**Q.** And the pIC50(app) [2]?
**A.** Its pIC50(app) is 5.82.

**Q.** For `COCCOc1nc(-c2cccc(Cl)c2)n(-c2ccc(NC(=O)CCl)cc2)n1`, which IC50 [1] is on record?
**A.** Its IC50 is 26 µM.

**Q.** And the pIC50(app) [2]?
**A.** The pIC50(app) was 4.57.

**Q.** With `COCCOc1nc(-c2ccc(C)c(C)c2)n(-c2ccc(NC(=O)CCl)cc2)n1` as the molecule, how does the IC50 [1] read?
**A.** The IC50 was 15 µM.

**Q.** And the pIC50(app) [2]?
**A.** The pIC50(app) was 4.82.

**Q.** How did the IC50 [10] turn out when `COCCOc1nc(-c2ccc(Cl)cc2)n(-c2ccc(NC(=O)CCl)cc2)n1` was run?
**A.** Its IC50 is 3 µM.

**Q.** And the pIC50(app) [11]?
**A.** The pIC50(app) was 5.52.

**Q.** What about the IC50 [1] of the same molecule?
**A.** Its IC50 is 1.6 µM.

**Q.** What about the pIC50(app) [2] of the same molecule?
**A.** The pIC50(app) was 5.81.

**Q.** With `COCCOc1nc(-c2ccc(F)cc2)n(-c2ccc(NC(=O)CCl)cc2)n1` as the molecule, how does the IC50 [10] read?
**A.** Its IC50 is 10 µM.

**Q.** And the pIC50(app) [11]?
**A.** Its pIC50(app) is 4.99.

**Q.** What about the IC50 [1] of the same molecule?
**A.** Its IC50 is 6.8 µM.

**Q.** What about the pIC50(app) [2] of the same molecule?
**A.** The pIC50(app) was 5.17.

**Q.** How did the IC50 [10] turn out when `COCCOc1nc(-c2ccc(Cl)c(Cl)c2)n(-c2ccc(NC(=O)CCl)cc2)n1` was run?
**A.** The IC50 was 7.8 µM.

**Q.** And the pIC50(app) [11]?
**A.** Its pIC50(app) is 5.11.

**Q.** How did the IC50 [1] turn out when `COCCOc1nc(-c2ccc(OC)cc2)n(-c2ccc(NC(=O)CCl)cc2)n1` was run?
**A.** The IC50 was 45 µM.

**Q.** And the pIC50(app) [2]?
**A.** The pIC50(app) was 4.35.

**Q.** `COCCOc1nc(-c2ccc3c(c2)OCO3)n(-c2ccc(NC(=O)CCl)cc2)n1` was tested. Which IC50 [1] did it give?
**A.** Its IC50 is 88 µM.

**Q.** And the pIC50(app) [2]?
**A.** Its pIC50(app) is 4.06.
